# Measured values as given in US7759071B2, “Determination of apoptotic products in tumor patients undergoing therapy” (Roche Diagnostics, priority 1998, dated 2010).
# Legend:
# [1] = system: metastasising pancreatic carcinoma; experiment: Nucleosome concentration in serum (Cell Death Detection plus ELISA) of a patient during chemotherapy; type: in vivo; settings: one patient, FIG. 9; for nucleosome concentration in the serum at the beginning of a cycle: combination Gemcitabine 1000 mg/m^2 (day 1, 8, 15) and Cisplatin 50 mg/m^2 (day 1, 15), then decreased slowly; for nucleosome concentration in the serum after start of new therapy scheme: combination folic acid 300 mg/m^2 and 5-fluorouracil 500 mg/m^2 on each of days 1 to 5, only a partial decrease afterwards
# Method: The Cell Death Detection^plus ELISA (Boehringer Mannheim, Cat. No. 1 774 425) is based on the quantitative sandwich enzyme immunoassay principle. Two monoclonal mouse antibodies are used which are directed against DNA and histones. The test can be carried out with cytoplasmic lysates, culture supernatants, plasma, serum and other body fluids and allows a specific detection of mononucleosomes and oligonucleosomes. The description given here applies to measurements in liquid media:
# A 20 μl aliquot of the material to be tested is pipetted into a well of a streptavidin-coated microtitre plate (MTP). 80 μl of an immunoreagent composed of biotinylated anti-histone antibodies, peroxidase-labelled anti-DNA antibodies and incubation buffer (1% BSA, 0.5% Tween, 1 mM EDTA in PBS) is added, covered with an adhesive foil and incubated for 2 hours on a MTP shaker (500 rpm). During this incubation period the anti-histone antibody reacts with the histone component of the nucleosomes and immobilizes the complex via the biotin on the streptavidin-coated microtitre plate. In addition the anti-DNA antibody binds to the DNA component of the nucleosomes. In this process ds as well as ss DNA is recognized. After removing the antibody that is still unbound by washing three times with 300-400 μl incubation buffer in each case, the immobilized complexes are incubated with 100 μl ABTS (2,2′-azino-di(3-ethyl-benzthiazoline sulfonate), the MTP is sealed with an adhesive foil and shaken at 250 rpm. The substrate reacts with the peroxidase label of the anti-DNA antibody and causes a colour change that is proportional to these antibodies. After an adequate colour development period it is photometrically quantified at d=405 nm against the substrate solution as a blank (reference wavelength d=492 nm).
# Therefore absolute concentration data are not used and a scale of so-called AUs (arbitrary units) is introduced. 1000 AU equates with the highest standard level (2500 mA after 30 min); the scale is linear. This therefore takes into account the lack of knowledge about the ratio of mononucleosomes to oligonucleosomes and the resulting variability concerning the amount of binding sites of the antibodies while at the same time increasing the comparability between the tests.
# After thawing attention must be paid to adjustment to room temperature and careful homogenization of the sample material. The serum samples are diluted 1:4 with incubation buffer (20 μl serum, 60 μl incubation buffer) and subsequently used in the test.
# The nucleosome content was measured in patients under chemotherapy before therapy and on the second and fourth day and one week after administration of the first dose and in addition weekly or before the start of the next treatment cycle.
# [2] = system: metastasising pancreatic carcinoma; experiment: Clinical course of the patient during chemotherapy; type: in vivo; settings: one patient, FIG. 9
# From the text: The effectiveness of tumour therapy can be determined by means of the remission rate on the basis of image generating processes (X-ray, computer tomography). By definition a complete remission is understood as the complete disappearance of the tumour for at least eight weeks and partial remission means a regression of the tumour manifestations by more than 50% with regard to their volume; no change reflects the state between a 50% decrease and a 25% increase of the tumour mass; progression denotes a progression of more than 25% (UICC criteria).
# [3] = combination Gemcitabine and Cisplatin
# [4] = combination folic acid and 5-fluorouracil, continuous increase of CEA
Compound,nucleosome concentration in the serum at the beginning of a cycle [1],"clinical course under therapy [2, 3]",nucleosome concentration in the serum after start of new therapy scheme [1],"clinical course under therapy [2, 4]"
Nc1ccn([C@@H]2O[C@H](CO)[C@@H](O)C2(F)F)c(=O)n1 [Gemcitabine],increased rapidly,clinical progressive deterioration,,
Nc1nc2ncc(CNc3ccc(C(=O)N[C@@H](CCC(=O)O)C(=O)O)cc3)nc2c(=O)[nH]1 [folic acid],,,rapid increase,progressive course
N.N.[Cl][Pt][Cl] [Cisplatin],increased rapidly,clinical progressive deterioration,,
O=c1[nH]cc(F)c(=O)[nH]1 [5-fluorouracil],,,rapid increase,progressive course
